pIC50: −log10 of the molar value. Read-outs that look alike come from different tables or passages of the source.

Holding throughout (format): biochemical
In one test the target is PDE1C (Homo sapiens (Human), UniProt Q14123). Put plainly: biochemical. The source says:
(§1) Table 1 lists the IC50 value for inhibition of PDE1 by the compounds of the invention. […] PDE1 assays are described in the Experimental Section.

For a further test, the target named is PDE1B (Homo sapiens (Human), UniProt Q01064). Put plainly: PDE1 inhibition assay (PDE1B). The conditions noted are these: PDE1B, IC50 (nM), 15 nM tritium labelled cAMP, 1 hr at room temperature, SPA beads.
Source text: as §1

A further test has as its target PDE1A (Homo sapiens (Human), UniProt P54750). In words: biochemical. The conditions noted are these: 15 nM tritium labelled cAMP, 1 hr at room temperature, SPA beads.
Source text: as §1

[1] abbreviates: 15 nM tritium labelled cAMP, 1 hr at room temperature, SPA beads.

Sequence of PDE1C (Q14123 whole entry): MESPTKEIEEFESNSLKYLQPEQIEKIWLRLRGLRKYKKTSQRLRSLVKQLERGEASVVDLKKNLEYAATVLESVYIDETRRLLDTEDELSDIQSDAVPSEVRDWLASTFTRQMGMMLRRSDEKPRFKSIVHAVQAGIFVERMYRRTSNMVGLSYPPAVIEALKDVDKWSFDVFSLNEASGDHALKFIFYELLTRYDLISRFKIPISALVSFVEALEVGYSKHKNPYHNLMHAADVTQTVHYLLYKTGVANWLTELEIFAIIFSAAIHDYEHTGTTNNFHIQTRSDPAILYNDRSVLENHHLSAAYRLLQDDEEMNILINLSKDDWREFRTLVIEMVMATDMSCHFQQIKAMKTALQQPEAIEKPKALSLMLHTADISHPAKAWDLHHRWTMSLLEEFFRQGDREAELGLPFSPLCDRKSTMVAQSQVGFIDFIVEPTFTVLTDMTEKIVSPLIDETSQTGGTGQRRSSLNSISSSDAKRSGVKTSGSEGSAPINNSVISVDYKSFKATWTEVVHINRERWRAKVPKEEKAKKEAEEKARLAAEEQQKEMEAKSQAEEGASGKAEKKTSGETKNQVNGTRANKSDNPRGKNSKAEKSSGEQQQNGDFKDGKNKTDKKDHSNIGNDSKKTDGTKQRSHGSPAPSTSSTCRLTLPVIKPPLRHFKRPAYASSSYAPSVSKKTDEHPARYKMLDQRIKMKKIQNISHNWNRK
Sequence of PDE1A (P54750 whole entry): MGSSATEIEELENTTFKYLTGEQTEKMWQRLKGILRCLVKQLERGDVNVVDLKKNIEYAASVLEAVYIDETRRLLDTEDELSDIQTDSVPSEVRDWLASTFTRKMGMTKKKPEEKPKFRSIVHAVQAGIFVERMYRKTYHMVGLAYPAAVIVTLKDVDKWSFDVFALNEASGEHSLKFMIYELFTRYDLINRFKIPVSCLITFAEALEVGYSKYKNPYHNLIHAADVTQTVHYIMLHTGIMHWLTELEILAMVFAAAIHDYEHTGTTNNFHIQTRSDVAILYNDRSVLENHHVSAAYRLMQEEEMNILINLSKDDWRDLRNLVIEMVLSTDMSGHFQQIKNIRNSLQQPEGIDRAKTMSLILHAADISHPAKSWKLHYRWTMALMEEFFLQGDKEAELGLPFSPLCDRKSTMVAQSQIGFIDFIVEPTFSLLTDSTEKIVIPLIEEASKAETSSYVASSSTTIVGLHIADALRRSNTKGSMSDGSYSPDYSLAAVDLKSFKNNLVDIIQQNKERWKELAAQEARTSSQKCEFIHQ
Sequence of PDE1B (Q01064 whole entry): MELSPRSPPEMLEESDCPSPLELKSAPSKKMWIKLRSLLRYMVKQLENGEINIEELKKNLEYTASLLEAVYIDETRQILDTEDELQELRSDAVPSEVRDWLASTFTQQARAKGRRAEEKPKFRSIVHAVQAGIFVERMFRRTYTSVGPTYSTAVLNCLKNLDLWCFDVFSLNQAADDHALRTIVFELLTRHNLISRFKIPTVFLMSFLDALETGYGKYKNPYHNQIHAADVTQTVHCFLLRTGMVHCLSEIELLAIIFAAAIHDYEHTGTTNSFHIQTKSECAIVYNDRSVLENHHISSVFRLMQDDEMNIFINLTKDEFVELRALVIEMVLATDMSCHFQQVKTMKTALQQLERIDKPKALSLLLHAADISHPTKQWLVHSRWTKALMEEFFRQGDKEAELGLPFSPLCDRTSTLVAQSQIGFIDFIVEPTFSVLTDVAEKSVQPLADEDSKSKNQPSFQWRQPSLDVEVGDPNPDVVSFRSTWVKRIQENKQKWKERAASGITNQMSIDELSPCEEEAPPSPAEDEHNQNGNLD

By pIC50 is commonly meant the negative decadic logarithm of the IC50, by convention in mol/L. Regarding `CCOc1ncccc1-c1cc(NCc2cc[nH]n2)c2c(n1)c(C)nn2C(C)CC` (single isomer, unassigned) [Example 120, 5-(2-ethoxy-3-pyridyl)-3-methyl-1-[1-methylpropyl]-N-(1H-pyrazol-3-ylmethyl)pyrazolo[4,3-b]pyridin-7-amine], at PDE1C, the pIC50 is 8.12.
One may read the IC50 as the concentration at which inhibition is half-maximal. Read a high IC50 as weaker potency in that assay. Take `CCOc1ncccc1-c1cc(NCc2ncn(C)n2)c2c(n1)c(C)nn2C(C)CC` (single isomer, unassigned) [Example 121, 5-(2-ethoxy-3-pyridyl)-3-methyl-1-[1-methylpropyl]-N-[(1-methyl-1,2,4-triazol-3-yl)methyl]pyrazolo[4,3-b]pyridin-7-amine]: the IC50 against PDE1B came out at 0.47 nM. This lies in the sub-nanomolar range.
Same read-out and setting: the same measure for `CCOc1ncccc1-c1cc(NCc2nnn(C)n2)c2c(n1)c(C)nn2C(C)CC` (single isomer, unassigned) [Example 127, 5-(2-ethoxy-3-pyridyl)-3-methyl-1-[1-methylpropyl]-N-[(2-methyltetrazol-5-yl)methyl]pyrazolo[4,3-b]pyridin-7-amine]: 0.31 nM.
On to `CCOc1ncccc1-c1cc(NCc2noc(C)n2)c2c(n1)c(C)nn2C(C)CC` (single isomer, unassigned) [Example 128, 5-(2-ethoxy-3-pyridyl)-3-methyl-N-[(5-methyl-1,2,4-oxadiazol-3-yl)methyl]-1-[1-methylpropyl]pyrazolo[4,3-b]pyridin-7-amine], for which the IC50 against PDE1B was 0.26 nM.
The compound `CCOc1ncccc1-c1cc(NCc2cc(C)[nH]n2)c2c(n1)c(C)nn2C(C)CC` (single isomer, unassigned) [Example 131, 5-(2-ethoxy-3-pyridyl)-3-methyl-1-[1-methylpropyl]-N-[(5-methyl-1H-pyrazol-3-yl)methyl]pyrazolo[4,3-b]pyridin-7-amine] registered an IC50 on PDE1B of 0.042 nM. This IC50 is about 6.2-fold lower than that of the compound before.
The compound `CCOc1ncccc1-c1cc(NCc2cn(C)cn2)c2c(n1)c(C)nn2C(C)CC` (single isomer, unassigned) [Example 132, 5-(2-ethoxy-3-pyridyl)-3-methyl-N-[(1-methylimidazol-4-yl)methyl]-1-[1-methylpropyl]pyrazolo[4,3-b]pyridin-7-amine] came in with an IC50 against PDE1B of 0.045 nM. The IC50 values of the last two compounds are within 1.5-fold of each other.
Turning to `CCCOc1ncccc1-c1cc(NCc2cc[nH]n2)c2c(n1)c(C)nn2C(C)CC` (single isomer, unassigned) [Example 135, 3-methyl-1-[1-methylpropyl]-5-(2-propoxy-3-pyridyl)-N-(1H-pyrazol-3-ylmethyl)pyrazolo[4,3-b]pyridin-7-amine], the figures for the pIC50 at PDE1A and at PDE1C (setting [1]) were 8.72 and 8.44, respectively.
With `CCOc1ncccc1-c1cc(NCc2cc[nH]n2)c2c(cnn2C(C)CC)n1` (single isomer, unassigned) [Example 137, 5-(2-ethoxy-3-pyridyl)-1-[1-methylpropyl]-N-(1H-pyrazol-3-ylmethyl)pyrazolo[4,3-b]pyridin-7-amine], the pIC50 against PDE1A was 6.74; at PDE1C it was 6.47.
Regarding `CCOc1ncccc1-c1cc(NCc2nnc(C)o2)c2c(cnn2C(C)CC)n1` (single isomer, unassigned) [Example 139, 5-(2-ethoxy-3-pyridyl)-N-[(5-methyl-1,3,4-oxadiazol-2-yl)methyl]-1-[1-methylpropyl]pyrazolo[4,3-b]pyridin-7-amine], the pIC50 on PDE1A was 6.48; at PDE1C it was 6.28.
Turning to `CCOc1ncccc1-c1cc(NCc2cnc(C)o2)c2c(n1)c(C)nn2C(C)C` [Example 4, 5-(2-ethoxy-3-pyridyl)-1-isopropyl-3-methyl-N-[(2-methyloxazol-5-yl)methyl]pyrazolo[4,3-b]pyridin-7-amine], the results for the pIC50 against PDE1A and against PDE1C (setting [1]) were 8.07 and 7.72, respectively.
In the case of `CCOc1ncccc1-c1cc(NCc2nnn(C)n2)c2c(n1)c(C)nn2C(C)C` [Example 8, 5-(2-ethoxy-3-pyridyl)-1-isopropyl-3-methyl-N-[(2-methyltetrazol-5-yl)methyl]pyrazolo[4,3-b]pyridin-7-amine], the values for the pIC50 against PDE1A and on PDE1C (setting [1]) were 8.54 and 8.05, respectively.
With `CCOc1ncccc1-c1cc(NCc2cnn(C)c2)c2c(n1)c(C)nn2C(C)C` [Example 9, 5-(2-ethoxypyridin-3-yl)-1-isopropyl-3-methyl-N-((1-methyl-1H-pyrazol-4-yl)methyl)-1H-pyrazolo[4,3-b]pyridin-7-amine], the pIC50 against PDE1A is 8.59; against PDE1C (setting [1]), 7.77.
For `CCOc1ncccc1-c1cc(NCc2cc(C)no2)c2c(n1)c(C)nn2C(C)C` [Example 10, 5-(2-ethoxy-3-pyridyl)-1-isopropyl-3-methyl-N-[(3-methylisoxazol-5-yl)methyl]pyrazolo[4,3-b]pyridin-7-amine] the same measures were 8.39 and 7.85.
`CCOc1ncccc1-c1cc(NCc2csc(C)n2)c2c(n1)c(C)nn2C(C)C` [Example 11, 5-(2-ethoxy-3-pyridyl)-1-isopropyl-3-methyl-N-[(2-methylthiazol-4-yl)methyl]pyrazolo[4,3-b]pyridin-7-amine]: the pIC50 against PDE1A was 8.02; against PDE1C (setting [1]), 7.52.
On to `CCOc1ncccc1-c1cc(NCc2cc(C)no2)c2c(cnn2C(C)C)n1` [Example 42, 5-(2-ethoxy-3-pyridyl)-1-isopropyl-N-[(3-methylisoxazol-5-yl)methyl]pyrazolo[4,3-b]pyridin-7-amine], for which the values for the pIC50 on PDE1A and against PDE1C (setting [1]) were 7.09 and 6.74, respectively.
`CCOc1ncccc1-c1cc(NCc2noc(C)n2)c2c(cnn2C(C)C)n1` [Example 43, 5-(2-ethoxy-3-pyridyl)-1-isopropyl-N-[(5-methyl-1,2,4-oxadiazol-3-yl)methyl]pyrazolo[4,3-b]pyridin-7-amine]: the pIC50 was 7.52 against PDE1A and 7.10 on PDE1C (setting [1]).
In the case of `CCOc1ncccc1-c1cc(NCc2cc(C)n(C)n2)c2c(cnn2C(C)C)n1` [Example 44, N-[(1,5-dimethylpyrazol-3-yl)methyl]-5-(2-ethoxy-3-pyridyl)-1-isopropyl-pyrazolo[4,3-b]pyridin-7-amine], the pIC50 at PDE1A is 7.72; on PDE1C (setting [1]), 7.15.
Turning to `CCOc1ncccc1-c1cc(NCc2nnco2)c2c(n1)c(C)nn2C(C)C` [Example 59, 5-(2-ethoxy-3-pyridyl)-1-isopropyl-3-methyl-N-(1,3,4-oxadiazol-2-ylmethyl)pyrazolo[4,3-b]pyridin-7-amine], the negative-log IC50 (pIC50) at PDE1A was 7.26; at PDE1C (setting [1]) it was 6.92.
For `CCOc1ncccc1-c1cc(OCc2cnc(C)o2)c2c(n1)c(C)nn2C(C)C` [Example 72, 5-[[5-(2-ethoxy-3-pyridyl)-1-isopropyl-3-methyl-pyrazolo[4,3-b]pyridin-7-yl]oxymethyl]-2-methyl-oxazole] the same measures were 7.85 and 7.41.
For `CCOc1ncccc1-c1cc(NCc2ccncn2)c2c(n1)c(C)nn2C(C)C` [Example 73, 5-(2-ethoxy-3-pyridyl)-1-isopropyl-3-methyl-N-(pyrimidin-4-ylmethyl)pyrazolo[4,3-b]pyridin-7-amine] the same measures were 7.09 and 6.85.
`CCOc1ncccc1-c1cc(NCc2ncccn2)c2c(n1)c(C)nn2C(C)C` [Example 74, 5-(2-ethoxy-3-pyridyl)-1-isopropyl-3-methyl-N-(pyrimidin-2-ylmethyl)pyrazolo[4,3-b]pyridin-7-amine]: the pIC50 against PDE1A was 8.68; against PDE1C (setting [1]) it was 8.09.
`CCOc1ncccc1-c1cc(NCc2nccc(C)n2)c2c(n1)c(C)nn2C(C)C` [Example 75, 5-(2-ethoxy-3-pyridyl)-1-isopropyl-3-methyl-N-[(4-methylpyrimidin-2-yl)methyl]pyrazolo[4,3-b]pyridin-7-amine]: the pIC50 against PDE1A is 8.00; at PDE1C (setting [1]), 7.48.
With `COc1ncccc1CNc1cc(-c2cccnc2OC)nc2c(C)nn(C(C)C)c12` [Example 95, 1-isopropyl-5-(2-methoxy-3-pyridyl)-N-[(2-methoxy-3-pyridyl)methyl]-3-methyl-pyrazolo[4,3-b]pyridin-7-amine], the pIC50 at PDE1A is 7.38.
Turning to `CCCn1cc(CNc2cc(-c3cccnc3OCC)nc3c(C)nn(C(C)C)c23)cn1` [Example 110, 5-(2-ethoxy-3-pyridyl)-1-isopropyl-3-methyl-N-[(1-propylpyrazol-4-yl)methyl]pyrazolo[4,3-b]pyridin-7-amine], the pIC50 is 7.96 on PDE1A and 8.07 on PDE1C (setting [1]).
In turn, `CCC1COC(=O)N1c1cc(NCc2cnn(C)c2)c2c(n1)c(C)nn2C(C)C` (centres unmarked) [Example 156, 4-ethyl-3-[1-isopropyl-3-methyl-7-[(1-methylpyrazol-4-yl)methylamino]pyrazolo[4,3-b]pyridin-5-yl]oxazolidin-2-one] had a pIC50 against PDE1C (setting [1]) of 8.29.
Regarding `CCOc1ncccc1-c1cc(NCc2nncn2C)c2c(n1)c(C)nn2C(C)C` [Example 162, 5-(2-ethoxy-3-pyridyl)-1-isopropyl-3-methyl-N-[(4-methyl-1,2,4-triazol-3-yl)methyl]pyrazolo[4,3-b]pyridin-7-amine], the pIC50 against PDE1A was 7.00; against PDE1C (setting [1]), 6.74.
For `Cc1nn(C(C)C)c2c(NCc3cccnc3C(F)(F)F)cc(-c3ccc[nH]c3=O)nc12` [Example 193, 3-[1-isopropyl-3-methyl-7-[[2-(trifluoromethyl)-3-pyridyl]methylamino]pyrazolo[4,3-b]pyridin-5-yl]-1H-pyridin-2-one] the same measures were 6.49 and 6.06.
Regarding `CCCOc1ncccc1-c1cc(NCc2cn[nH]c2)c2c(n1)c(C)nn2C(C)C` [Example 196, 1-isopropyl-3-methyl-5-(2-propoxy-3-pyridyl)-N-(1H-pyrazol-4-ylmethyl)pyrazolo[4,3-b]pyridin-7-amine], the pIC50 on PDE1A was 7.74; on PDE1C (setting [1]), 7.57.
For `Cc1coc(-c2cc(NCc3cnn(C)c3)c3c(n2)c(C)nn3C(C)C)n1` [Example 202, 1-isopropyl-3-methyl-N-((1-methyl-1H-pyrazol-4-yl)methyl)-5-(4-methyloxazol-2-yl)-1H-pyrazolo[4,3-b]pyridin-7-amine] the same measures were 7.04 and 6.77.

The record behind these values is US10034861B2 (priority 2016, dated 2018).
